Test results as given in article PMC8344022, “Small-molecule inhibitor of AF9/ENL-DOT1L/AF4/AFF4 interactions suppresses malignant gene expression and tumor growth” (Theranostics, 2021).

Assays:
[1] = biological target: T1, AF9-AFF4 interaction (Homo sapiens, UniProt P42568); assay: Alpha assay, AF9-AFF4 interaction; assay type: binding; conditions: read-out: IC50, inhibition of AF9-AFF4 interaction
T1 construct: cDNA for human AF9 AHD domain (475-568) and ENL AHD domain (489-559) was synthesized; made in house; host or cells: E. coli BL21(DE3)
Protocol: ENL is also a major MLL fusion partner (~10%). The AHD domains of human ENL and AF9 share a high homology with 82% identity and 89% similarity (Figure S1A). […] Our attempts to develop an Alpha assay for ENL-DOT1L failed. […] Compound 1's activity against ENL-DOT1L was therefore not determined.
Alpha assays. Alpha assays were developed using Perkin-Elmer AlphaLisa anti-MBP kit, which contains streptavidin donor beads and anti-MBP acceptor beads. The assay was performed using a MBP-protein (5 nM), a biotinylated peptide (40 nM), and increasing concentrations of a compound in 25 µL buffer (PBS with 0.5 % BSA, pH 7.5) in 384-well plates according to the manufacturer's protocol and measured with a Tecan SPARK microplate reader. Data were imported into Prism (version 5.0), and IC50 values from 3 independent experiments with standard deviation were obtained by using a standard dose-response curve fitting.

[2] = biological target: T2, AF9 AHD bound to DOT1L-coated beads (Homo sapiens, UniProt P42568); assay: Western blot based pull-down assay; assay type: binding; conditions: increasing concentrations
T2 construct: cDNA for human AF9 AHD domain (475-568) and ENL AHD domain (489-559) was synthesized; made in house; host or cells: E. coli BL21(DE3)
Protocol: A non-optical pull-down assay was used to further validate compound 1. DOT1L-coated beads were incubated with AF9 AHD in the presence of increasing concentrations of 1.
Western blot based pull-down assay. Biotinylated DOT1L peptide (0.25 mg/mL) was incubated with streptavidin agarose beads in PBS containing 0.1% Triton X-100 (400 µL) for 3h to yield, after washing, DOT1L-coated beads. MBP-AF9 AHD (0.2 µM, 40 µL) was pre-incubated with a compound for 30 min before adding to the beads. After 6 hours incubation at 4 °C, the beads were collected, thoroughly washed, and subjected to SDS-PAGE and analyzed by Western blot using an MBP Mouse mAb (#2396, Cell signaling).

T1 sequence (P42568 475-568): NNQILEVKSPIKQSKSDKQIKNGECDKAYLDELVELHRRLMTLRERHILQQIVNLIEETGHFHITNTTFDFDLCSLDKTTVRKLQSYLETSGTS
T2 sequence (P42568 475-568): as above

With `CC(C)(C)c1ccc(-n2cc(C(=O)NC3CCNCC3)nc2-c2ccccc2)cc1` [Compound 1] the IC50 [1] was 2500 ± 100 nM and the “Beads-bound AF9 AHD in pull-down (Western blot)” value [2] was “reduced beads-bound AF9 AHD with a similar IC50”.
